The values below come from ChEMBL document CHEMBL1144129, “Isolation of xestosterol esters of brominated acetylenic fatty acids from the marine sponge xestospongia testudinaria” (J Nat Prod, 1999).

Molecules are shown by their SMILES.

The assay has as its target T1, Adenosine receptor A1 (Rattus norvegicus, UniProt P25099).
T1 sequence (P25099 whole entry): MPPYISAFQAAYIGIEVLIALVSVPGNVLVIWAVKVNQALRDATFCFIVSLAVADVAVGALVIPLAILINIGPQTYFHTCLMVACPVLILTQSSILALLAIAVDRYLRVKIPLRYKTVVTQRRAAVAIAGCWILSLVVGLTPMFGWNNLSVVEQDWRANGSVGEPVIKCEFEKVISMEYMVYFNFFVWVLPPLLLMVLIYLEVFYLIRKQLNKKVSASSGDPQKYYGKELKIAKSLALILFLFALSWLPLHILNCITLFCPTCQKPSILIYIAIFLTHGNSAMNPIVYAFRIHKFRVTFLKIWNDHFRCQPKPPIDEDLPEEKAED
As to the kind of experiment: Displacement of [3H]DPCPX from rat brain adenosine A1 receptor. (In general: Displacement assays read how much labelled ligand stays bound in the presence of the test substance.)

Usually IC50 stands for the concentration that inhibits the measured activity by half. Read a low IC50 as greater potency.

`O=C(O)CCCCCC#C/C=C/CCCCC#C/C=C/Br` registered an IC50 of 106 µM.
